# Test results taken from paper doi:10.1101/2023.03.31.535043v1 (biorxiv, 2023).
# Molecular target: human A2AR (Homo sapiens, UniProt P29274)
# Experiment: radioligand displacement, [3H]ZM241385
# Type: binding
# Conditions: […] [3H]ZMA; […] Tris/HCl pH […]; […] min; CHO K1 membranes
# human A2AR, sequence (P29274 whole entry): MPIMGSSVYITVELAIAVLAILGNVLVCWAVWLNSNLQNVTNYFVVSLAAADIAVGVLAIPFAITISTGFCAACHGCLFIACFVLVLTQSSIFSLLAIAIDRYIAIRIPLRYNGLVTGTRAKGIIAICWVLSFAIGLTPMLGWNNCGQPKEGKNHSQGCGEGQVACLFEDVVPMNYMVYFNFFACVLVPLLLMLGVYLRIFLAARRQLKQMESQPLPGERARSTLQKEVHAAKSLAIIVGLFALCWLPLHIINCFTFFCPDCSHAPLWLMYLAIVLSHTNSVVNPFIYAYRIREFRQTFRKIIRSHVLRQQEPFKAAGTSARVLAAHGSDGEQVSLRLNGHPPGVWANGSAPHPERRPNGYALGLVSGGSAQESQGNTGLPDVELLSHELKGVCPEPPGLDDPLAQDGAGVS
smiles,measurement,value
N#Cc1c(NC(=O)Cn2c(=O)oc3ccccc32)oc(-c2ccccc2)c1-c1ccccc1 [JG-10],Ki,310 ± 23.4 nM
